The values below come from patent publication US20090208493A1, “Compounds and methods for the selective inhibition of ABCB1, ABCC1 and ABCG2 transporters and the treatment of cancers, especially drug resistant cancers and high throughput flow cytometry assay to detect selective inhibitors” (STC. UNM, priority 2007, published 2009).

The target of series [1] is T1, ABCB1 (Homo sapiens, UniProt P08183). Kind of series: JC-1 efflux HyperCyt flow cytometry assay (ABCB1 reversal). The settings on record: for hit in primary screen of Prestwick Chemical Library for ABCB1-mediated JC-1 efflux: final concentration of 5 μM.
T1 sequence (P08183 whole entry): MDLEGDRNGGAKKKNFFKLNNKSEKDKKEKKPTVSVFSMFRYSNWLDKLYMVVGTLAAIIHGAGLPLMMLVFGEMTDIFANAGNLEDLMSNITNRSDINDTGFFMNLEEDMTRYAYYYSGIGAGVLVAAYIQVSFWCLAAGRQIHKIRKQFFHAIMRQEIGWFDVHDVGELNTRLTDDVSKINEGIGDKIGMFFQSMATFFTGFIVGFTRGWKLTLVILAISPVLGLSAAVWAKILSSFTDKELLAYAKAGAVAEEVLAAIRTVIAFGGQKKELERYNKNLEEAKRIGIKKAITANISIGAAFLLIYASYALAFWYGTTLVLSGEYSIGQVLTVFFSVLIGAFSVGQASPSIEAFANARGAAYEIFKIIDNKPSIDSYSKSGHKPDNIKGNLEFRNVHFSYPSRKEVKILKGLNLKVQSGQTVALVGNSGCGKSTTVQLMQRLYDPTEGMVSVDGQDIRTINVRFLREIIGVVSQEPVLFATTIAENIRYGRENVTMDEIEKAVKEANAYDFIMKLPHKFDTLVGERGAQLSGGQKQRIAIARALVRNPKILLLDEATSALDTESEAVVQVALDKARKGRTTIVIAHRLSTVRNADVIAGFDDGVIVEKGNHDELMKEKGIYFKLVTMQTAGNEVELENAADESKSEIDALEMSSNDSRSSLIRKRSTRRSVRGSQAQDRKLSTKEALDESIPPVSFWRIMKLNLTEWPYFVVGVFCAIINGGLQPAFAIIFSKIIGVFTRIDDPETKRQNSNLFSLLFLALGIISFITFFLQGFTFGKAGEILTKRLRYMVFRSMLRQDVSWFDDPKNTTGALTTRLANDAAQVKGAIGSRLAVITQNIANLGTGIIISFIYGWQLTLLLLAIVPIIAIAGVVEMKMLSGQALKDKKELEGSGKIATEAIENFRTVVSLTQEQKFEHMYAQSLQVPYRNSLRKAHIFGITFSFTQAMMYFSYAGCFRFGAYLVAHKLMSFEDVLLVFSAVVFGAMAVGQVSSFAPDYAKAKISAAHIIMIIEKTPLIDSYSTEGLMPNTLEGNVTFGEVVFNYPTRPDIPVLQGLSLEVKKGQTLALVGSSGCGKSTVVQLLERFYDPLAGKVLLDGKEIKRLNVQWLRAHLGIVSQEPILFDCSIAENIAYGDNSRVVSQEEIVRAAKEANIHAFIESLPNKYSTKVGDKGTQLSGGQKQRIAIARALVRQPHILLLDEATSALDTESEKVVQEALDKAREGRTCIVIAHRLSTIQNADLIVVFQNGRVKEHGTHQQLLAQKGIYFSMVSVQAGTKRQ
Series [2] concerns DNR-resistant Jurkat cells. In words: Chemreversal50: sensitisation of DNR-resistant Jurkat cells to 100 nM DNR. Conditions: read-out: Chemorev50 (SD), 50% of reversal of chemotherapeutic effect determined in in vitro screen. Format: cell-based, human. The method, then: To enable this analysis, a 3-log range of each “hit” compound was added in 2 mL aliquots to a 6 well plate and, over a range of 7 days, total cell number and viability was measured using a hemacytometer and trypan blue staining. Fresh media containing 100 nM DNR was added over the course of the experiment to maintain the cell concentration ≧100,000 cells/mL. […] The differences (if any) between the Chemreversal50 and TD50 gave an approximation of an in vitro “therapeutic index” for each compound.

The target in series [3] is T1, ABCB1. The settings on record: 5 μM.
Series [4] concerns Jurkat DNR resistant cells. Kind of series: Chemosensitivity of DNR-resistant Jurkat cells. Format: cell-based, human. Conditions: for IC50: Homo sapiens, Jurkat cells with acquired resistance to DNR.
A further series deals with parental Jurkat cells. In words: Chemosensitivity of parental (therapy sensitive) Jurkat cells. Type of series: cell-based. The settings on record: Homo sapiens.
A further series concerns the target T2, ABCG2 (Homo sapiens, UniProt Q9UNQ0).
T2 construct: ABCG2-expressing IgMXP3 cells; endogenous in cells; host or cells: IgMXP3 cells (resistant subline of Igrov1)
T2 sequence (Q9UNQ0 1-655): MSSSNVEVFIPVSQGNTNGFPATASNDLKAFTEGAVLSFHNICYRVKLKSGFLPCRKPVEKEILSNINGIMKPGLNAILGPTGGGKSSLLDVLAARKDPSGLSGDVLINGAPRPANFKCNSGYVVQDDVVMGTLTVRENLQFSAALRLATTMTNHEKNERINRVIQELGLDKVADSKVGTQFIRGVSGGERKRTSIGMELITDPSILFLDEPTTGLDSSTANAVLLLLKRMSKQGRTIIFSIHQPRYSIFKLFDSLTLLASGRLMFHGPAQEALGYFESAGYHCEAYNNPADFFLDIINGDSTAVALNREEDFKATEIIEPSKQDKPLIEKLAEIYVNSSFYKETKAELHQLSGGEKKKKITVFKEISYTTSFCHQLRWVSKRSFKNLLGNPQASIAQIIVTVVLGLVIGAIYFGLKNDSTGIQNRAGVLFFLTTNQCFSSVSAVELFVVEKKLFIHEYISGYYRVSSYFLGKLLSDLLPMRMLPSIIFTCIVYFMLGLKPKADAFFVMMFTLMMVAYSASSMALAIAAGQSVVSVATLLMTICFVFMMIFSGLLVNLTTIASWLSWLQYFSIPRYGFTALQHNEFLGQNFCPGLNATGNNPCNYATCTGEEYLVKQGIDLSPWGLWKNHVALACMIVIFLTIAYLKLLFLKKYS
In words: JC1 duplex high-throughput flow cytometry assay, ABCG2 (IgMXP3 cells). Type of series: cell-based. The settings on record: 384 well plate. The method, then:
(§1) Jurkat-DNR cells (ABCB1) were labeled with 0.5 ng/ml FarRed DDAO CellTrace SE (Invitrogen) for 15 min at room temperature, washed twice by centrifugation, then combined with unlabeled IgMXP3 cells (ABCG2) in the assay buffer. The label binds covalently to amine groups in cells and is detected at red fluorescence emission wavelengths of 665±10 nm upon excitation at 635 nm. Final in-well concentration of cells was 3×10^6 cell/ml at a 1:1 ratio of the two cell types.
(In general: Flow cytometry measures light scatter and fluorescence of single cells or particles in a stream.)

Series [5] addresses T1, ABCB1. In words: JC1 duplex high-throughput flow cytometry assay, ABCB1 (Jurkat-DNR cells). Type of series: cell-based. The arrangement: endogenous in cells; host or cells: Jurkat cells selected for daunorubicin resistance (Jurkat-DNR). The settings on record: 384 well plate. As to the method: as §1
For series [6], the system named is DNR-resistant Jurkat cells. Type of series: cell-based. The settings on record: media alone, 7 days.
The mark [7] stands for this setting: Homo sapiens, 168 h, DNR-resistant Jurkat cells, fixed 100 nM DNR, 7 days, trypan blue viability.

Structures can show the parent of a compound that is named as a salt. Where two headings read alike, the source gives them in different places.

Consider `COc1c(O[C@@H]2O[C@H](CO)[C@@H](O)[C@H](O)[C@H]2O)cc2c(c1OC)-c1ccc(SC)c(=O)cc1[C@@H](NC(C)=O)CC2` [thiocolchicoside], for which, on ABCB1 [1], the “hit in primary screen of Prestwick Chemical Library for ABCB1-mediated JC-1 efflux” value (from here on “hit in primary screen”) is recorded as “inhibiting ABCB1-mediated drug efflux”.
In general, IC50 refers to the concentration at which inhibition is half-maximal. For `CC(C)COCC(CN(Cc1ccccc1)c1ccccc1)N1CCCC1` (stereo not shown) [Bepridil HCL, bepridil], the IC50 on ABCB1 [1] worked out at 7.4 ± 0.95 µM. Further, the EC50 in series [2] (setting [7]) was determined as 3.3 µM.
With `C=C(C)[C@H]1Cc2c(ccc3c2O[C@@H]2COc4cc(OC)c(OC)cc4[C@@H]2C3=O)O1` [rotenone], the “hit in primary screen” value at ABCB1 [1] is listed as “inhibiting ABCB1-mediated drug efflux”.
In the case of `CC(=O)O[C@H]1C[C@@]2(C)[C@@H](C[C@@H](O)[C@H]3[C@@]4(C)CC[C@@H](O)[C@@H](C)[C@@H]4CC[C@@]32C)/C1=C(\CCC=C(C)C)C(=O)O` [fusidic acid], the “hit in primary screen” value on ABCB1 [3] is on record as “inhibiting ABCB1-mediated drug efflux”.
For the compound `CC(=O)N1CCN(c2ccc(OCC3COC(Cn4ccnc4)(c4ccc(Cl)cc4Cl)O3)cc2)CC1` (stereo not shown) [Ketoconazole, ketoconazole], in series [2] (setting [7]), the EC50 was determined as 3.7 µM.
For the compound `Cc1cccc(C)c1NC(=O)CN1CCN(CCCC(c2ccc(F)cc2)c2ccc(F)cc2)CC1` [Lidoflazine, lidoflazine], the IC50 at ABCB1 [1] worked out at 5.4 ± 0.55 µM. Besides, in series [2] (setting [7]), the EC50 came out at 3.1 µM.
The corresponding values for `Fc1ccc(C(OCCN2CCN(CCCc3ccccc3)CC2)c2ccc(F)cc2)cc1` [GBR 12909 HCL, GBR 12909] are 4.6 ± 0.28 µM and 2.1 µM.
`CC[C@]1(O)C[C@H]2CN(CCc3c([nH]c4ccccc34)[C@@](C(=O)OC)(c3cc4c(cc3OC)N(C=O)[C@H]3[C@@](O)(C(=O)OC)[C@H](OC(C)=O)[C@]5(CC)C=CCN6CC[C@]43[C@@H]65)C2)C1` [VCR, Vincristine]: in series [4], the “increased resistance of DNR-resistant vs parental Jurkat cells” value (“increased resistance of DNR-resistant” below) is “approximately 70 fold” and the IC50 was 316 µM. Further, in the series with parental Jurkat cells, the IC50 was 6.31 µM.
On to `CC[C@@H](C(=O)[C@@H](C)[C@@H](O)[C@H](C)CCc1ccc(C)c(O)c1C(=O)O)[C@H]1O[C@](CC)([C@H]2CC[C@](O)(CC)[C@H](C)O2)C[C@@H]1C` [Lasalocid], for which the “JC1 duplex assay response, ABCG2” value at ABCG2 was “significant assay response for both transporters”. The “JC1 duplex assay response, ABCB1” value at ABCB1 [5] is given as “significant assay response for both transporters”.
`COC(=O)[C@H]1[C@H]2C[C@@H]3c4[nH]c5cc(OC)ccc5c4CCN3C[C@H]2C[C@@H](OC(=O)/C=C/c2cc(OC)c(OC)c(OC)c2)[C@@H]1OC` [Rescinnamine, rescinnamine]: the IC50 at ABCB1 [1] stood at 1.53 ± 0.5 µM. The EC50 in series [2] (setting [7]) came out at 1 µM.
Take `CC[C@H](c1ccc(O)cc1)[C@@H](CC)c1ccc(O)cc1` [Hexestrol, hexestrol]: the IC50 at ABCB1 [1] came out at 8.3 ± 3.2 µM. Moreover, in series [2] (Homo sapiens, Jurkat, 168 h), the EC50 stood at 12.8 µM.
Turning to `Cc1cc(C2CCCCC2)n(O)c(=O)c1.NCCO` [ciclopirox ethanolamine], the “hit in primary screen” value at ABCB1 [1] is “inhibiting ABCB1-mediated drug efflux”.
On to `CCOC(=O)Oc1c(OC)cc(C(=O)O[C@@H]2C[C@@H]3CN4CCc5c([nH]c6cc(OC)ccc56)[C@H]4C[C@@H]3[C@H](C(=O)OC)[C@H]2OC)cc1OC` [syrosingopine], for which the “hit in primary screen” value at ABCB1 [3] is listed as “inhibiting ABCB1-mediated drug efflux”.
Regarding `C[C@]12C=CC(=O)C=C1CC[C@@H]1[C@@H]2[C@@H](O)C[C@@]2(C)[C@H]1CC[C@]2(O)C(=O)CO` [PRED, prednisolone], the “increased resistance of DNR-resistant” value in series [4] came out at 3 fold. Further, the IC50 is 1 µM in series [4] and 0.316 µM in the series on parental Jurkat cells.
As for L-asparaginase, the “increased resistance of DNR-resistant” value in series [4] is “no increased resistance”.
In the case of `Cc1c2ccncc2c(C)c2c1[nH]c1ccccc12` [Ellipticine, ellipticine], at ABCB1 [1], the IC50 worked out at 0.99 ± 0.014 µM. For the same compound, in series [2] (Homo sapiens, Jurkat, 168 h), the EC50 was 1.8 µM. In addition, the “TD50 (SD), 50% toxic dose determined in in vitro screen” value in series [6] came out at 3.8 µM; in series [6] (listed as ellipticine), 2.7 ± 1.56 µM.
For the compound `CC[C@H](C)[C@H]1O[C@]2(C=C[C@@H]1C)C[C@@H]1C[C@@H](C/C=C(\C)[C@@H](O[C@H]3C[C@H](OC)[C@@H](O[C@H]4C[C@H](OC)[C@@H](O)[C@H](C)O4)[C@H](C)O3)[C@@H](C)/C=C/C=C3\CO[C@@H]4[C@H](O)C(C)=C[C@@H](C(=O)O1)[C@]34O)O2` [avermectin], the “hit in primary screen” value on ABCB1 [1] is given as “inhibiting ABCB1-mediated drug efflux”.
For the compound `COC(=O)C1=C(C)NC(C)=C(C(=O)OCCN(C)Cc2ccccc2)C1c1cccc([N+](=O)[O-])c1` (stereo not shown) [Nicardipine HCL, nicardipine], the EC50 in series [2] (setting [7]) is 2.6 µM.
With `CCCNCC(O)COc1ccccc1C(=O)CCc1ccccc1` (stereo not shown) [Propafenone HCL, propafenone], in series [2] (setting [7]), the EC50 came out at 4.9 ± 1.3 µM.
For the compound antimycin, the “hit in primary screen” value on ABCB1 [1] is listed as “inhibiting ABCB1-mediated drug efflux”.
Take `C[C@@H]1C[C@H]2[C@@H]3CCC4=CC(=O)C=C[C@]4(C)[C@@]3(Cl)[C@@H](O)C[C@]2(C)[C@@]1(OC(=O)c1ccco1)C(=O)CCl` [Mometasone Furoate, mometasone furoate]: the IC50 at ABCB1 [1] (read-out: IC50 (SD), 50% inhibition of drug efflux determined in high-throughput screen, JC-1 efflux, DNR-resistant Jurkat cells) came out at 0.74 ± 0.13 µM. Moreover, the EC50 in series [2] (DNR-resistant Jurkat cells, fixed 100 nM DNR, 7 days, trypan blue viability) stood at 1.4 ± 0.28 µM. Further, the “TD50 (SD), 50% toxic dose determined in in vitro screen” value in series [6] stood at 30.4 µM; in series [6] (listed as mometasone), 24.8 ± 8.0 µM.
